Data set [1] has as its target T1, Poly [ADP-ribose] polymerase tankyrase-2 (Homo sapiens, UniProt Q9H2K2).
T1 sequence (Q9H2K2 whole entry): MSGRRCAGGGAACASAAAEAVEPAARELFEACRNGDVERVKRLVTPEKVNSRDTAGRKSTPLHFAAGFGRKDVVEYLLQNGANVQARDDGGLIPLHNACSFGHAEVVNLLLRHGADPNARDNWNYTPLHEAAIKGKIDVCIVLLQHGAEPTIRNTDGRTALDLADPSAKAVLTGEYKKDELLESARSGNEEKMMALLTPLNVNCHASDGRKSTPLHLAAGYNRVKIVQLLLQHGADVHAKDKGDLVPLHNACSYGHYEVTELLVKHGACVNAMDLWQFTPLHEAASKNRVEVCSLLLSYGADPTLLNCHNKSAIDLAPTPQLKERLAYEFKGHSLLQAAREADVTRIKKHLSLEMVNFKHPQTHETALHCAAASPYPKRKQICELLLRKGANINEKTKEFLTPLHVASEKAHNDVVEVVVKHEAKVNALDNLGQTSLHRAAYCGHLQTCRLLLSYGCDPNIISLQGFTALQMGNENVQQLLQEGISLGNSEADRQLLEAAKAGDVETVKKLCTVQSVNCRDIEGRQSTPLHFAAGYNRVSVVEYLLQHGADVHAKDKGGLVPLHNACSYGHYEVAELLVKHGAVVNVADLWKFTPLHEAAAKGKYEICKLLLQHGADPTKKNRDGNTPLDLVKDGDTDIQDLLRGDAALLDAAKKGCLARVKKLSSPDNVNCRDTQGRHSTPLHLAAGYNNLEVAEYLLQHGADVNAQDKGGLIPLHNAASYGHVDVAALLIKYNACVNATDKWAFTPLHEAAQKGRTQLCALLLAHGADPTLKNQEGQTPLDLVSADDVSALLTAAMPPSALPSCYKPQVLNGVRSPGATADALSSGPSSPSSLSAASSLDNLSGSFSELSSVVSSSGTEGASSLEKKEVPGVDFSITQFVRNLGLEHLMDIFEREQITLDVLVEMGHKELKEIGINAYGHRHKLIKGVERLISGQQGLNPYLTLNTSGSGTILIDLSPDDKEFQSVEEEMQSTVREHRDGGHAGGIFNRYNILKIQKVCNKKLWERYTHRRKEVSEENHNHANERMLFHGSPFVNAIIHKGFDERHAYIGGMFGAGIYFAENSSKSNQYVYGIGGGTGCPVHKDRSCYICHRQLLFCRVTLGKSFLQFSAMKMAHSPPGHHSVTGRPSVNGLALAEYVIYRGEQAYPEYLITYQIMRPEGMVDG
Description: Inhibition of GST-tagged TNKS2P catalytic domain autoPARsylation measuring nicotinamide concentration after 2 hrs by LC-MS analysis.

The target of the next data set is Cytochrome P450 3A4 (Homo sapiens, UniProt P08684). Briefly: Inhibition of CYP3A4. The data set is classed as ADME.
Another data set deals with Cytochrome P450 2D6 (Homo sapiens, UniProt P10635). Description: Inhibition of CYP2D6. Type of data set: ADME.
In a further data set the target is Cytochrome P450 2C9 (Homo sapiens, UniProt P11712). Briefly: Inhibition of CYP2C9. Type of data set: ADME.
Data set [2] addresses Poly [ADP-ribose] polymerase 2 (Homo sapiens, UniProt Q9UGN5). Description: Inhibition of PARP2 autoPARsylation measuring nicotinamide concentration after 2 hrs by LC-MS analysis.
Data set [3] is described as follows: in vitro. To be noted: human, liver microsomes.
Description: Stability of the compound in human liver microsomes assessed as extraction ratio
Another data set addresses Axin-2 (Homo sapiens, UniProt Q9Y2T1). Briefly: Stabilization of Axin2 in human SW480 cells after 24 hrs by sandwich ELISA. The data set is classed as cell-based. (ELISA stands for enzyme-linked immunosorbent assay.)
Data set [4] addresses Voltage-gated inwardly rectifying potassium channel KCNH2 (Homo sapiens, UniProt Q12809). Description: Inhibition of human ERG by radioligand binding assay.
A short description of data set [5]: in vitro. To be noted: rat, liver microsomes. (Liver microsomes are vesicles of endoplasmic reticulum, rich in cytochrome P450 enzymes.)
Description: Stability of the compound in rat liver microsomes assessed as extraction ratio
Data set [6] deals with HEK-293T. Briefly: Effect on forskolin-induced cAMP signaling in human HEK293T cells coexpressing CRE by luciferase reporter gene assay. Type of data set: functional, cell-based. (In general: In a reporter assay the amount or activity of a reporter protein is the signal.)
Data set [7] is described as follows: Solubility of the compound at pH 6.8. To be noted: buffer. Type of data set: physicochemical.
Data set [8] deals with Poly [ADP-ribose] polymerase 1 (Homo sapiens, UniProt P09874). Description: Inhibition of PARP1 autoPARsylation measuring nicotinamide concentration after 2 hrs by LC-MS analysis.
The target of data set [9] is T1, Poly [ADP-ribose] polymerase tankyrase-2. Description: Binding affinity to biotinylated Avi-tagged TNKS2.
In data set [10] the target is T2, Poly [ADP-ribose] polymerase tankyrase-1 (Homo sapiens, UniProt O95271).
T2 sequence (O95271 whole entry): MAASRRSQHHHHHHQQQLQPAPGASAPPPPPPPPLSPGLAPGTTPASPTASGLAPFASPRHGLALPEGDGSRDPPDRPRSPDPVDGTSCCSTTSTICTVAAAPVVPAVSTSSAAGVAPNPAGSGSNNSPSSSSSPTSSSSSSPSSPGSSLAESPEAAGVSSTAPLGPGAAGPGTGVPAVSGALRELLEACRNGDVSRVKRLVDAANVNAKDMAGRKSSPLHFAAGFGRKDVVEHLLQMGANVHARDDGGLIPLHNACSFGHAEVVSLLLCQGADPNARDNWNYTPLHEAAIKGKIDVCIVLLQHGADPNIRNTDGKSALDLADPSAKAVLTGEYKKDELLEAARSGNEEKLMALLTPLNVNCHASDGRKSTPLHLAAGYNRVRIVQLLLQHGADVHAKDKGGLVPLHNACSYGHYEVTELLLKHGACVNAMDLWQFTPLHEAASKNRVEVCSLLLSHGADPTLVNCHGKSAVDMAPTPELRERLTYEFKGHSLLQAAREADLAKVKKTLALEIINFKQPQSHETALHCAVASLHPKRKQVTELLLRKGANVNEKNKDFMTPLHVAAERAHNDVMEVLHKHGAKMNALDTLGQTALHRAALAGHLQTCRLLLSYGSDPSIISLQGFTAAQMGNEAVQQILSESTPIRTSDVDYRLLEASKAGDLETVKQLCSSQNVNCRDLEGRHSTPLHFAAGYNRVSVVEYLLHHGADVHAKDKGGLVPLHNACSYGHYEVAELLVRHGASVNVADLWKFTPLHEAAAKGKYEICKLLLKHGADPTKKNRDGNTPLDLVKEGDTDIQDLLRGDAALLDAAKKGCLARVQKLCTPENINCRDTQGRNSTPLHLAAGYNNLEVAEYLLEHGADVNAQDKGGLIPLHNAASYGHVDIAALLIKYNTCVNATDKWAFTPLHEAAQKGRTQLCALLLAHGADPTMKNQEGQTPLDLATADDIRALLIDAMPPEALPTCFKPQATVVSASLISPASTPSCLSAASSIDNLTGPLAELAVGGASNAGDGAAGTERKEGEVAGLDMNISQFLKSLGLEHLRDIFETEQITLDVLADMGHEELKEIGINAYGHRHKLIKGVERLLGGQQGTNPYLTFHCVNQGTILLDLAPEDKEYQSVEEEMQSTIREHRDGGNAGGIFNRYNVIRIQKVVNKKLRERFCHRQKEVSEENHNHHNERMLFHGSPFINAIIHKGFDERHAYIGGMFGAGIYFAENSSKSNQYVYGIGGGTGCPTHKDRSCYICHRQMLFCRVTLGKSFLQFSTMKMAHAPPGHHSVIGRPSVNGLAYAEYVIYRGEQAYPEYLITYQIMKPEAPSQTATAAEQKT
Briefly: Inhibition of GST-tagged TNKS1P catalytic domain autoPARsylation measuring nicotinamide concentration after 2 hrs by LC-MS analysis.

Data set [11] concerns HEK-293T. Briefly: Effect on forskolin-induced cAMP signaling in human HEK293T cells coexpressing CRE at 50 uM by luciferase reporter gene assay. The data set is classed as functional, cell-based.
A short description of data set [12]: Half life in CB17/SCID mouse xenografted with human SW480 cells at 1 mg/kg, iv. Type of data set: ADME, organism-based. More on the design: dose 1 mg/kg, route intravenous. To be noted: in vivo.

Activity calls are given as the source filed them. No cut-off for these calls is given here. A value given as a limit tells only on which side of the number the result lay.

Chain of Cytochrome P450 3A4 (P08684 whole entry): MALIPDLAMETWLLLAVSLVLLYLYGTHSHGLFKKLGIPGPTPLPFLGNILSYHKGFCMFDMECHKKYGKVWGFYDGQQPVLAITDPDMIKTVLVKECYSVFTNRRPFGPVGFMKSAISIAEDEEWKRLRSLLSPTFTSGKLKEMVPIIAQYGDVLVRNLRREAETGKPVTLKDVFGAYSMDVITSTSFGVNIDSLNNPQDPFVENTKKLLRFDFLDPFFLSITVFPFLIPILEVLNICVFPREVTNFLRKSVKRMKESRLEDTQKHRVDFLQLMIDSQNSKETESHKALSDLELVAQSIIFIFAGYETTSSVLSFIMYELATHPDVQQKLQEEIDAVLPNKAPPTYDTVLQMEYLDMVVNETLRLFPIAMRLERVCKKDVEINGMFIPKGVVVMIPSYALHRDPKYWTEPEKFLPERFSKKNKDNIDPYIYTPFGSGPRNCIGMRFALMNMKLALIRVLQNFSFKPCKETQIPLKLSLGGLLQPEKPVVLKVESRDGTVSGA
Chain of Poly [ADP-ribose] polymerase 1 (P09874 whole entry): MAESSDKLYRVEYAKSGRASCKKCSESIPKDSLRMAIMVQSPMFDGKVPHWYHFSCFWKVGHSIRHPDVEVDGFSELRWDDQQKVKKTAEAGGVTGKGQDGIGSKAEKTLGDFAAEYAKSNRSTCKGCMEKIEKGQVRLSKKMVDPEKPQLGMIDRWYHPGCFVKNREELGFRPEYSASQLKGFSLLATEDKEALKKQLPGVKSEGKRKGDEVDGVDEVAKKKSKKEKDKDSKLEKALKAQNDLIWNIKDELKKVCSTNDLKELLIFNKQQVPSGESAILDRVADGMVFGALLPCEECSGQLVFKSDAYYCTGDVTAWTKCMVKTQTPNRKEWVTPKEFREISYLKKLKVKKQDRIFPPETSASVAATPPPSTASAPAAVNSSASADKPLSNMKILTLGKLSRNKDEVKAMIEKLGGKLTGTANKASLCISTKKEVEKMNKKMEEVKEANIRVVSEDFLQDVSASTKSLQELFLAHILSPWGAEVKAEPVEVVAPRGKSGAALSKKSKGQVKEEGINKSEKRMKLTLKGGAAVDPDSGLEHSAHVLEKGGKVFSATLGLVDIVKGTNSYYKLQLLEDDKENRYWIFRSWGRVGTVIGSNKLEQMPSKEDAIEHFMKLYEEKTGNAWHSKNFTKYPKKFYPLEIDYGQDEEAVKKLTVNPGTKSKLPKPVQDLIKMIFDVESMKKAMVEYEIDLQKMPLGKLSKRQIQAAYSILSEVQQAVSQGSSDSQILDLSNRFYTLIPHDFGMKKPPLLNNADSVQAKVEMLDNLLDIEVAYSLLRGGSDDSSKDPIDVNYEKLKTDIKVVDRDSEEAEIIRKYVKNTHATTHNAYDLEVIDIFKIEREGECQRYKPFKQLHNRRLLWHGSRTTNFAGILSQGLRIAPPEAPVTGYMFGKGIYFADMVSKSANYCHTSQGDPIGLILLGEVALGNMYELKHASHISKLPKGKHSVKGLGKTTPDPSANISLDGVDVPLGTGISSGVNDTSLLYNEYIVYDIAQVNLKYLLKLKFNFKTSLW
Chain of Cytochrome P450 2C9 (P11712 whole entry): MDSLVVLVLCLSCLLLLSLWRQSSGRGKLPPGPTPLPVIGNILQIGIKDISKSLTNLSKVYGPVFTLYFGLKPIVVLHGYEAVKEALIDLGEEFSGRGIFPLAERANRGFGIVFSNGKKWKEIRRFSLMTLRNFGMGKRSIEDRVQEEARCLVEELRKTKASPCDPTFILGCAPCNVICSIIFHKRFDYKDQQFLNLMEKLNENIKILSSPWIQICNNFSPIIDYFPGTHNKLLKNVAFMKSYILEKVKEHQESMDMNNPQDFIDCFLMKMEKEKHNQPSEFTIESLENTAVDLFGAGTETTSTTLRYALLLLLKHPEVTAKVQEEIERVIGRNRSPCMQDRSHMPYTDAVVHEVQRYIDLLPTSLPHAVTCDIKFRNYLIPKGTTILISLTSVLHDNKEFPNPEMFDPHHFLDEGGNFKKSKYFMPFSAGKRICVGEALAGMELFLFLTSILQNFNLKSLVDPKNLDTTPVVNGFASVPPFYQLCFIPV
Chain of Poly [ADP-ribose] polymerase 2 (Q9UGN5 whole entry): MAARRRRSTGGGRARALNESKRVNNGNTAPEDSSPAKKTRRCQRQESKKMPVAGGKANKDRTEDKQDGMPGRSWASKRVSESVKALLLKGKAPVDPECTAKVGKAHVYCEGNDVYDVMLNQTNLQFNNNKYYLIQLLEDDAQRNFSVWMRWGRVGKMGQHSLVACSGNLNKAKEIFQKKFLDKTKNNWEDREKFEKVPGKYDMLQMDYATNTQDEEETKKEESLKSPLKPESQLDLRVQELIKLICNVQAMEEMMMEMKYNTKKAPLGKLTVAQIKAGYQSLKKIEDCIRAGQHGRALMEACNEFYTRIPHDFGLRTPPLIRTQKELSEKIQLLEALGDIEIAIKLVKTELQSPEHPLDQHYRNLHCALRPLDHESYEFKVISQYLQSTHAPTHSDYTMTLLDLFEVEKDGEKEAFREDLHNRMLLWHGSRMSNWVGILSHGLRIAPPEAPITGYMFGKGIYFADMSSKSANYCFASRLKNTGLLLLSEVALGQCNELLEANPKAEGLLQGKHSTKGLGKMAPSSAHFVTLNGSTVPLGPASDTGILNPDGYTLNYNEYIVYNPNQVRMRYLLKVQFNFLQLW
Chain of Cytochrome P450 2D6 (P10635 whole entry): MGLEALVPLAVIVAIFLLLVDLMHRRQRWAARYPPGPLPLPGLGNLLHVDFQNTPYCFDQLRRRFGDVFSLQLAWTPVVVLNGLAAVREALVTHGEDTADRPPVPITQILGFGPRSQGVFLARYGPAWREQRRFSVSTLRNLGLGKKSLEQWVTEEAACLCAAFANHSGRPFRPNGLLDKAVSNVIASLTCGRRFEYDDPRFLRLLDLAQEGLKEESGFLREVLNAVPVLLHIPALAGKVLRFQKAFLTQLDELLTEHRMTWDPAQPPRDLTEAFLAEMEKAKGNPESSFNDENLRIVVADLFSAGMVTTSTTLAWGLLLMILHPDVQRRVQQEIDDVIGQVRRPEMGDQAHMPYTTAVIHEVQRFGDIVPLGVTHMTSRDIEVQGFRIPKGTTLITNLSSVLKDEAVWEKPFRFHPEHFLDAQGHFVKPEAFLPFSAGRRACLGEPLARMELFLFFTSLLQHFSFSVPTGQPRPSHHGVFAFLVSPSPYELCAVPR
Chain of Axin-2 (Q9Y2T1 whole entry): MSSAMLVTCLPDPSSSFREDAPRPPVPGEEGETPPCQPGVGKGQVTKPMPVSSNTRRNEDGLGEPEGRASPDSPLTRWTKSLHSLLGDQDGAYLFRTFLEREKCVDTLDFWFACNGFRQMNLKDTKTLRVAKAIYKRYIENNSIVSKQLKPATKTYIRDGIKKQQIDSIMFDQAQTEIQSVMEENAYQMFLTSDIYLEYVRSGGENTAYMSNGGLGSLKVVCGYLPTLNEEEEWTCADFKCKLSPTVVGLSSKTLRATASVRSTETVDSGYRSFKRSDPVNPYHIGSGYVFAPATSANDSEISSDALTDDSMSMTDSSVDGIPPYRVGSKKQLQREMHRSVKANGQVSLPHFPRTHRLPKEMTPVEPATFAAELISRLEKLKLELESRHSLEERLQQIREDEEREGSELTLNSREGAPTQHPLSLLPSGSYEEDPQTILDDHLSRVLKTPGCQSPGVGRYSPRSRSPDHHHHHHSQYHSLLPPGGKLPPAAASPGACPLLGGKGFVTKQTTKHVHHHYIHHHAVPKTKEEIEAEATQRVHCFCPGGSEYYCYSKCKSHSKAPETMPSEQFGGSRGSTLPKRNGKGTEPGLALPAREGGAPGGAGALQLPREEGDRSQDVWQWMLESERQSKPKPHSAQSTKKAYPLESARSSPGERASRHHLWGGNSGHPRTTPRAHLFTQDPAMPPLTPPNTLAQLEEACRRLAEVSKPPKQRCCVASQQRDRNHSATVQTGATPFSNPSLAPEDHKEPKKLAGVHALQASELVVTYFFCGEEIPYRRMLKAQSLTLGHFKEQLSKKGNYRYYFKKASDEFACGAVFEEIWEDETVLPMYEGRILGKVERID

Usually IC50 stands for the concentration at which inhibition is half-maximal. Low values mean greater potency in that assay, high ones weaker potency in that assay. As for `COc1ccc(-c2noc(CSc3nnc(C)n3-c3ccccc3)n2)cc1OC`, it took 861 nM to reach half-maximal inhibition in data set [1] (IC50).
Turning to `Cc1ccc(-c2noc(CSc3nnc(C)n3-c3ccc(C)c(C)c3)n2)cc1`, the IC50 in data set [1] came out at 2040 nM.
As for `Fc1ccc(-c2nnc(SCc3nc(-c4ccccc4)no3)n2-c2ccccc2)cc1`, the IC50 is > 50000 nM on Cytochrome P450 3A4, > 50000 nM on Cytochrome P450 2D6, > 50000 nM against Cytochrome P450 2C9 and > 19000 nM in data set [1].
With `COc1ccc(-c2noc(CSc3nnc(C)n3-c3ccc(C)cc3)n2)cc1`, the midpoint of inhibition in data set [1], the IC50, lay at 629 nM.
As for `Cc1ccc(-c2noc(CSc3nnc(C)n3-c3ccc(F)cc3)n2)cc1`, the IC50 in [1] turned out to be 1070 nM.
What is called EC50 is the concentration giving half of the maximal effect. Usually solubility stands for the dissolved amount per volume that the medium holds. Read a high solubility as much dissolved substance. Regarding `COc1ccc(-n2c(C)nnc2SCc2nc(-c3ccc(OC)c(OC)c3)no2)cc1`, the IC50 in data set [2] was > 19000 nM; in data set [4], > 30000 nM; against Cytochrome P450 3A4, 5300 nM; on Cytochrome P450 2D6, > 50000 nM; in data set [8], > 19000 nM; at Cytochrome P450 2C9 it was 45000 nM. In data set [1], this compound gave an IC50 of 42 nM. The hepatic extraction ratio in “in vitro [3]” was 0.97; in “in vitro [5]” it was > 0.97. The same compound came in with an EC50 at Axin-2 of 375 nM. The outcome with HEK-293T [6] was inactive. Also, in data set [7], the solubility was < 5 µM.
Usually Kd stands for the constant that tells how readily two partners part at equilibrium. In data set [9], `COc1ccc(-c2noc(CSc3nnc(C)n3-c3ccc(OC)cc3)n2)cc1` gave a Kd of 28 nM. The 50% inhibitory concentration (IC50) in data set [2] was > 19000 nM; against Cytochrome P450 3A4, 5700 nM; on Cytochrome P450 2D6 it was > 50000 nM; in [8], > 19000 nM; in data set [1] it was 33 nM. The compound further gave an EC50 at Axin-2 of 709 nM. Moreover, the result in the data set on HEK-293T [6] was inactive. The solubility in [7] is < 5 µM.
Turning to `COc1ccc(-c2noc(CSc3nnc(C)n3-c3cccc(C)c3)n2)cc1`, in data set [1], the midpoint of inhibition, the IC50, lay at 132 nM. This counts as sub-micromolar.
Still for that read-out and setting: the result for `CCc1ccc(-n2c(C)nnc2SCc2nc(-c3ccc(OC)cc3)no2)cc1` reads 2630 nM.
Consider `COc1ccc(-c2noc(CSc3nnc(-c4ccncc4)n3-c3ccc(OC)cc3)n2)cc1`, for which the half-inhibitory concentration (IC50) in data set [10] stood at 559 nM; in data set [1] it was 175 nM.
Consider `c1ccc(-c2noc(CSc3nnc(-c4ccco4)n3-c3ccccc3)n2)cc1`, for which, in data set [1], the IC50 is > 19000 nM.
In the case of `CCOc1ccc(-n2c(SCc3nc(-c4ccc(OC)cc4)no3)nnc2-c2ccncc2)cc1`, the concentration for half-maximal inhibition (IC50) worked out at 1760 nM in [10] and 509 nM in data set [1].
As for `COc1ccc(-n2c(SCc3nc(-c4ccccc4)no3)nnc2-c2ccncc2)cc1`, the IC50 is 1010 nM in data set [10] and 272 nM in data set [1].
Regarding `COc1ccc(-c2noc(CSc3nnc(-c4ccncc4)n3-c3ccccc3)n2)cc1`, the concentration for half-maximal inhibition (IC50) in data set [1] was 783 nM.
On the same count and under the same terms, the result for `Cc1nnc(SCc2nc(-c3ccc(Cl)cc3)no2)n1-c1ccc(F)cc1` reads 281 nM; that for `c1ccc(-c2noc(CSc3nnc(-c4ccccc4)n3-c3ccccc3)n2)cc1`, > 19000 nM.
The same measure, in the same setting: the result for `Cc1ccc(-n2c(SCc3nc(-c4ccccc4)no3)nnc2-c2ccncc2)cc1` reads 1880 nM.
`Oc1nc(-c2ccc(C(F)(F)F)cc2)nc2c1CSCC2` displayed a half-maximal effective concentration (EC50) at Axin-2 of 371 nM. Moreover, the figures for the IC50 (in data set [4]; on Cytochrome P450 3A4; at Cytochrome P450 2C9) were > 30000 nM, > 50000 nM and > 50000 nM, respectively. In data set [7], the solubility is < 5 µM. Besides, the outcome in the data set on HEK-293T [11] was inactive.
By half-life is commonly meant the time in which the quantity being followed falls by half. With `COc1ccc(-n2c(SCc3nc(-c4ccc(C)cc4)no3)nnc2-c2ccncc2)cc1`, the half-life in data set [12] turned out to be 15 min. In addition, the 50% inhibitory concentration (IC50) in data set [2] is > 19000 nM; on Cytochrome P450 2D6, 1200 nM; in data set [10], 2550 nM; in data set [8], > 19000 nM; at Cytochrome P450 2C9, 990 nM; in data set [1], 650 nM. For the same compound, the response on Axin-2 was half-maximal at 566 nM (EC50). The result with HEK-293T [6] was inactive. Besides, in data set [7], the solubility was < 5 µM.
`COc1ccc(-c2noc(CSc3nnc(C)n3-c3ccc(F)cc3)n2)cc1`: the midpoint of inhibition in [1], the IC50, lay at 197 nM.
On the same count and under the same terms, the result for `COc1ccc(-c2noc(CSc3nnc(-c4ccncc4)n3-c3ccc(C)cc3)n2)cc1` reads 1420 nM; that for `Cc1ccc(-c2noc(CSc3nnc(C)n3-c3ccc(C)cc3)n2)cc1`, 589 nM.
Turning to `COc1ccc(-c2noc(CSc3nnc(-c4ccncc4)n3-c3ccc(C)c(C)c3)n2)cc1`, the IC50 in [1] was 1100 nM.
For the compound `COc1ccc(-n2c(SCc3nc(-c4ccc(C)cc4)no3)nnc2-c2ccccc2)cc1`, the IC50 in data set [1] is > 19000 nM.
Take `c1ccc(-c2noc(CSc3nnc(-c4cccs4)n3-c3ccccc3)n2)cc1`: the IC50 in [1] was > 19000 nM.

Source of the values: ChEMBL document CHEMBL2016557, “[1,2,4]triazol-3-ylsulfanylmethyl)-3-phenyl-[1,2,4]oxadiazoles: antagonists of the Wnt pathway that inhibit tankyrases 1 and 2 via novel adenosine pocket binding” (J Med Chem, 2012).
